From ChEMBL document CHEMBL3352653, “Synthesis of pyrazolo[4,3-a]phenanthridines, a new scaffold for Pim kinase inhibition” (Bioorg Med Chem, 2014)

Experiments:
[1] = target: Serine/threonine-protein kinase pim-2 (Homo sapiens) (UniProt Q9P1W9); experiment: Inhibition of full-length human PIM2 using RSRHSSYPAGT as substrate assessed as residual kinase activity at 1 uM after 30 mins in presence of [gamma-33P]ATP
[2] = target: T1, Serine/threonine-protein kinase pim-3 (Homo sapiens, UniProt Q86V86); experiment: Inhibition of full-length human PIM3 using RSRHSSYPAGT as substrate assessed as residual kinase activity at 10 uM after 30 mins in presence of [gamma-33P]ATP
[3] = target: T2, Serine/threonine-protein kinase pim-1 (Homo sapiens, UniProt P11309); experiment: Inhibition of full-length human PIM1 using RSRHSSYPAGT as substrate assessed as residual kinase activity at 1 uM after 30 mins in presence of [gamma-33P]ATP
Target sequence in this assay (P11309 whole entry, looked up): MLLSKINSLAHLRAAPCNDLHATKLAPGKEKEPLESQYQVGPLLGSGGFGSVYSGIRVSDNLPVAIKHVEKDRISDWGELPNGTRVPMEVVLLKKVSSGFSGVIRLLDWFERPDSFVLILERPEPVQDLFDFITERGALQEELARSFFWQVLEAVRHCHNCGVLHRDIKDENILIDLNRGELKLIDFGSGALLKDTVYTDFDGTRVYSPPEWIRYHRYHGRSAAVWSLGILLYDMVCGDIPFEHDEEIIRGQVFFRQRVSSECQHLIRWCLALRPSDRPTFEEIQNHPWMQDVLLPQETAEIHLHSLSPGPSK

[4] = target: Serine/threonine-protein kinase pim-2 (Homo sapiens) (UniProt Q9P1W9); experiment: Inhibition of full-length human PIM2 using RSRHSSYPAGT as substrate assessed as residual kinase activity at 10 uM after 30 mins in presence of [gamma-33P]ATP
[5] = target: T2, Serine/threonine-protein kinase pim-1; experiment: Inhibition of full-length human PIM1 using RSRHSSYPAGT as substrate assessed as residual kinase activity at 10 uM after 30 mins in presence of [gamma-33P]ATP
Target sequence in this assay (P11309 whole entry, looked up): as above

[6] = target: T1, Serine/threonine-protein kinase pim-3; experiment: Inhibition of full-length human PIM3 using RSRHSSYPAGT as substrate assessed as residual kinase activity at 1 uM after 30 mins in presence of [gamma-33P]ATP
LNCaP = experiment: Antiproliferative activity against human LNCAP cells at 10 uM after 72 hrs by MTS assay; format: functional
[7] = Antiproliferative activity against human PC3 cells at 10 uM after 72 hrs by MTS assay; format: functional; details: PC-3, 72 h
[8] = Antiproliferative activity against human PC3 cells after 72 hrs by MTS assay; format: functional, cell-based; details: PC-3, 72 h
[9] = target: T1, Serine/threonine-protein kinase pim-3; experiment: Inhibition of full-length human PIM3 using RSRHSSYPAGT as substrate assessed as residual kinase activity after 30 mins in presence of [gamma-33P]ATP
[10] = target: T2, Serine/threonine-protein kinase pim-1; experiment: Inhibition of full-length human PIM1 using RSRHSSYPAGT as substrate assessed as residual kinase activity after 30 mins in presence of [gamma-33P]ATP
Target sequence in this assay (P11309 whole entry): as the sequence (P11309 whole entry, looked up) above

Sequence of Serine/threonine-protein kinase pim-2 (Homo sapiens) (Q9P1W9 whole entry, looked up): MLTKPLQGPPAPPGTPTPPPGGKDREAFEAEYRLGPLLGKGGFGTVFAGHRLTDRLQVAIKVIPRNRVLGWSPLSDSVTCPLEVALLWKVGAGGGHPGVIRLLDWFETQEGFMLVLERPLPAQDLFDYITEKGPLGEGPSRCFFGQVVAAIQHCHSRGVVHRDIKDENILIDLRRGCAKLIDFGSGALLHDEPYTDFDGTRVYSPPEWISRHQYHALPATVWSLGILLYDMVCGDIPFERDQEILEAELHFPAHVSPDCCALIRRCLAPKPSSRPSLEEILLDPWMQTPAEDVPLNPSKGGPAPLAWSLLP

| Activity [1] | Activity [2] | Activity [3] | Activity [4] | Activity [5] | Activity [6] | IC50 [9] | IC50 [10] | Structure (SMILES) | inhibition at 10 µM (LNCaP) | inhibition at 10 µM [7] | IC50 [8] |
| --- | --- | --- | --- | --- | --- | --- | --- | --- | --- | --- | --- |
| 84.6% | 47% | 44% | 38% | 11% | 98% |  |  | c1ccc2c(c1)cnc1ccc3[nH]ncc3c12 |  |  |  |
| 92% | 7% | 53% | 54% | 15.8% | 18.9% | 400 nM |  | O=[N+]([O-])c1cc2[nH]ncc2c2c1ncc1cc3c(cc12)OCO3 | 54% | 60% | 5000 nM |
| 83% | 4% | 28% | 47% | 9% | 8.9% | 200 nM |  | O=[N+]([O-])c1cc2[nH]ncc2c2c1ncc1ccc(Cl)cc12 | 31% | 75% | 3000 nM |
| 100% | 16.5% | 96% | 84% | 35% | 60% |  |  | COc1ccc2c(cnc3c(N)cc4[nH]ncc4c32)c1 |  |  |  |
| 96% | 10.5% | 88% | 57% | 18% | 50% |  |  | Nc1cc2[nH]ncc2c2c1ncc1ccc(Cl)cc12 |  |  |  |
| 86% | 24% | 55% | 43% | 17% | 55% |  |  | Nc1cc2[nH]ncc2c2c1ncc1ccccc12 |  |  |  |
| 64% | 5.5% | 20% | 55% | 15% | 8% | 140 nM | 120 nM | COc1ccc2c(cnc3c([N+](=O)[O-])cc4[nH]ncc4c32)c1 | 40% | 73% | 1100 nM |
| 110% | 7.9% | 90% | 76% | 16% | 42% |  |  | Nc1cc2[nH]ncc2c2c1ncc1c(F)cccc12 |  |  |  |
| 46% | 0.9% | 16% | 8.1% | 2.2% | 6% | 20 nM | 70 nM | O=[N+]([O-])c1cc2[nH]ncc2c2c1ncc1ccccc12 | 54% | 68% | 2460 nM |
| 84% | 6.7% | 46% | 66% | 19% | 14% | 169 nM |  | O=[N+]([O-])c1cc2[nH]ncc2c2c1ncc1c(F)cccc12 | 46% | 37% |  |
